Patent US12005127B2, “DNA-PK inhibitors” (VERTEX PHARMACEUTICALS INCORPORATED, priority 2018, dated 2024)

Legend:
DNA-PK [1] = target: T1, DNA-PK (Homo sapiens, UniProt P78527); test: DNA-PK inhibition assay (radiometric 33P-ATP kinase assay); assay type: biochemical; details: competitive tight-binding fit
Procedure: Compounds were screened for their ability to inhibit DNA-PK kinase using a standard radiometric assay. Briefly, in this kinase assay the transfer of the terminal ^33P-phosphate in ^33P-ATP to a peptide substrate is interrogated. The assay was carried out in 384-well plates to a final volume of 50 μL per well containing approximately 6 nM DNA-PK, 50 mM HEPES (pH 7.5), 10 mM MgCl2, 25 mM NaCl, 0.01% BSA, 1 mM DTT, 10 μg/mL sheared double-stranded DNA (obtained from Sigma), 0.8 mg/mL DNA-PK peptide (Glu-Pro-Pro-Leu-Ser-Gln-Glu-Ala-Phe-Ala-Asp-Leu-Trp-Lys-Lys-Lys, obtained from American Peptide), and 100 μM ATP. Accordingly, compounds of the invention were dissolved in DMSO to make 10 mM initial stock solutions. Serial dilutions in DMSO were then made to obtain the final solutions for the assay. A 0.75 μL aliquot of DMSO or inhibitor in DMSO was added to each well, followed by the addition of ATP substrate solution containing ^33P-ATP (obtained from Perkin Elmer). The reaction was started by the addition of DNA-PK, peptide and ds-DNA. After 45 min, the reaction was quenched with 25 μL of 5% phosphoric acid. The reaction mixture was transferred to MultiScreen HTS 384-well PH plates (obtained from Millipore), allowed to bind for one hour, and washed three times with 1% phosphoric acid. Following the addition of 50 μL of Ultima Gold™ high efficiency scintillant (obtained from Perkin Elmer), the samples were counted in a Packard TopCount NXT Microplate Scintillation and Luminescence Counter (Packard BioScience). The Ki values were calculated using Microsoft Excel Solver macros to fit the data to the kinetic model for competitive tight-binding inhibition. In Tables 1 and 2 below, Ki of less than 0.001 micromolar for the inhibition of DNA-PK is indicated as “A”; Ki of equal to or greater than 0.001 micromolar and less than 0.01 micromolar for the inhibition of DNA-PK as “B”; Ki of equal to or greater than 0.01 micromolar and less than 0.1 micromolar for the inhibition of DNA-PK as “C”; Ki of equal to or greater than 0.1 micromolar and less than 1 micromolar for the inhibition of DNA-PK for “D”; and Ki of equal to or greater than 1 micromolar as “E.”

DNA-PK [2] = target: T1, DNA-PK; test: DNA-PK cellular assay (pDNA-PK Ser2056 sandwich ELISA, NCS-induced DSBs); assay type: cell-based; parameters: endogenous in cells; host or cells: A549 (human NSCLC); details: pDNA-PK (Ser2056) in A549 cells, NCS 50 ng/ml, 15 minutes
Source text: DNA-PK is recruited to and activated by double-strand breaks (DSB) in DNA and plays a critical role in the non-homologous end-joining (NHEJ) repair mechanism. Upon activation, DNA-PK undergoes rapid autophosphorylation at Ser2056. The measure of pDNA-PK (Ser2056) in response to DNA DSBs provides a cellular signaling assay to evaluate potential DNA-PK kinase inhibitors.
Neocarzinostatin (NCS) was used as a radiomimetic to induce DNA DSBs. The sandwich ELISA used the Meso Scale Discovery electrochemiluminescence technology platform which typically provides greater sensitivity than traditional ELISA formats.
A549 (human NSCLC) cells are plated at 25,000 cells/well in 100 uL of DMEM (Invitrogen cat #11995-040) supplemented with 1% Pen/Strep (Invitrogen cat #15070-063) and 10% FBS (Hyclone cat #SH30071.03HI) on black clear bottom 96 well plates (Costar #3904) and allowed to adhere overnight at 37° C. in 5% CO2. The following day, the compounds and NCS solutions are prepared by adding 100 ul of DMEM growth media per well in a Corning polypropylene V-bottom deep well plate (cat #3357). The HP Compound Dilution D300 instrument was used to add compounds to the appropriate wells using the setting logarithmic and 16-point titration singlet.
The DMEM NCS solution was prepared by adding NCS to DMEM media at 200 ng/ml (final assay concentration, 50 ng/ml). 100 ul of the DMEM/NCS solution is added to the wells with the compounds. 100 ul of this solution is then immediately added to the A549 cells. The cells are then incubated for 15 minutes at 37° C.
The complete lysis buffer is prepared by adding 1% Phosphatase inhibitor (Sigma cat #P2850) and 1% Protease Inhibitor (Sigma cat #P8340) to the Lanthascreen cellular assay lysis buffer (Invitrogen cat #PV5598). The media from the plate was removed by flicking and patting dry. 60 uL/well of the complete lysis buffer is added to each well. These plates are then incubated for at least 5 minutes in the lysis buffer at room temperature to ensure complete lysis. At this point the lysates can be transferred to prepared ELISA plates.
The prepared ELISA plates were prepared blocking the Mesoscale Goat-Anti-Mouse (GAM) plates with 150 uL/well of 3% Blocker A (Mesoscale cat #R93-BA) for one hour at room temperature with shaking. The capture antibody is prepared by diluting the mouse monoclonal anti-total DNA-PK (AbCAM cat #ab1832) to 3 ug/mL in 1% Blocker A. The blocked plates rinsed once with 200 uL D-PBS. The capture antibody (25 ul/well) was added to each well and allowed to incubate for an hour at room temperature while shaking. This was rinsed once with 200 ul D-PBS before adding 25 uL of the prepared cell lysate from the cell plates to the Mesoscale GAM ELISA plate. The lysate is then incubated on the plates for one hour at room temperature with shaking. The detection antibody (Epitomics rabbit anti-pS2056-DNA-PK) is prepared at a 1/1000 dilution (to a final concentration of 450 ng/mL) in 1% Blocker A. The GAM plates are washed once with 200 uL of D-PBS and then 25 uL/well of the detection antibody is added to the plate. This incubates for one hour at room temperature with shaking. The Sulfotag is prepared by adding Sulfo-Tag Goat-Anti-Rabbit antibody (Mesoscale cat #R32AB-1) at a 1/500 dilution (1 ug/mL) to 1% Blocker A. The GAM plates are washed with 200 uL of D-PBS and then 25 uL of the Sulfotag preparation is added to each well. Once the plates have been incubated with the final solution, the Sulfotag, for 1 hour, they are washed once with 200 uL of D-PBS. The 1× Read Buffer (Mesoscale cat #R32-TC) is made by diluting the 4× buffer in ddH20. 150 uL of 1× buffer is added to each well of the GAM plate and then the plate is read on the Sector Imager 2400. The readout (electrochemiluminescence) was plotted against the concentration of each compound and the IC50s were generated using Prism software (GraphPad Prism version 6.0e for Macintosh). […]

Structure (SMILES) | Ki (DNA-PK [1]; Table 1, 100 μM ATP) | IC50 (DNA-PK [2]; Table 1) | Ki (DNA-PK [1]; Table 2, 100 μM ATP) | IC50 (DNA-PK [2]; Table 2)
Cc1nc2c(c(N[C@H]3CC[C@@H](Oc4cc(N5CCOCC5)cc5ncnc(C#N)c45)CC3)n1)OCC2 [Compound 2, 5-[4-[(2-methyl-6,7-dihydrofuro[3,2-d]pyrimidin-4-yl)amino]cyclohexoxy]-7-morpholino-quinazoline-4-carbonitrile] | < 0.001 µM | < 100 nM | – | –
Cc1nccc(N[C@H]2CC[C@@H](Oc3cc(N4CCOCC4)cc4ncnc(C#N)c34)CC2)n1 [Compound 4, 5-[4-[(2-methylpyrimidin-4-yl)amino]cyclohexoxy]-7-morpholino-quinazoline-4-carbonitrile] | < 0.001 µM | < 100 nM | – | –
COc1ncnc2cc(N3CCOCC3)cc(O[C@H]3CC[C@@H](Nc4nc(C)nc5c4OCC5)CC3)c12 [Compound 5, N-[4-(4-methoxy-7-morpholino-quinazolin-5-yl)oxycyclohexyl]-2-methyl-6,7-dihydrofuro[3,2-d]pyrimidin-4-amine] | < 0.001 µM | < 100 nM | – | –
COc1ncnc2cc(N3CCOCC3)cc(O[C@H]3CC[C@@H](Nc4ccnc(C)n4)CC3)c12 [Compound 6, N-[4-(4-methoxy-7-morpholino-quinazolin-5-yl)oxycyclohexyl]-2-methyl-pyrimidin-4-amine] | < 0.001 µM | < 100 nM | – | –
CNC(=O)c1ccnc(N[C@H]2CC[C@@H](Oc3cc(N4CCOCC4)cc4ncncc34)CC2)n1 [Compound 8, N-methyl-2-[[4-(7-morpholinoquinazolin-5-yl)oxycyclohexyl]amino]pyrimidine-4-carboxamide] | < 0.001 µM | < 100 nM | – | –
Cc1ncc2c(O[C@H]3CC[C@@H](NC(=O)OC(C)(C)C)CC3)cc(N3CCOCC3)cc2n1 [Compound 10, tert-butyl N-[4-(2-methyl-7-morpholino-quinazolin-5-yl)oxycyclohexyl]carbamate] | 0.001 to 0.01 µM | ≥ 1000 nM | – | –
CNC(=O)c1ccnc(N[C@H]2CC[C@@H](Oc3cc(N4CCOCC4)cc4nc[nH]c(=O)c34)CC2)n1 [Compound 11, N-methyl-2-[[4-[(7-morpholino-4-oxo-3H-quinazolin-5-yl)oxy]cyclohexyl]amino]pyrimidine-4-carboxamide] | < 0.001 µM | ≥ 1000 nM | – | –
Cc1nccc(N[C@H]2CC[C@@H](Oc3cc(N4CCOCC4)cc4nc(C)ncc34)CC2)n1 [Compound 12, 2-methyl-N-[4-(2-methyl-7-morpholino-quinazolin-5-yl)oxycyclohexyl]-pyrimidin-4-amine] | 0.001 to 0.01 µM | 100 to 1000 nM | – | –
Cn1cnc(C(=O)N[C@H]2CC[C@@H](Oc3cc(N4CCOCC4)cc4ncncc34)CC2)c1 [Compound 26, 1-methyl-N-((1s,4s)-4-((7-morpholinoquinazolin-5-yl)oxy)cyclohexyl)-1H-imidazole-4-carboxamide] | – | 100 to 1000 nM | – | –
COc1ccc(COc2cc(N3CCOCC3)cc3ncnc(Cl)c23)cc1 [Compound 54, 4-[4-chloro-5-[(4-methoxyphenyl)methoxy]quinazolin-7-yl]morpholine] | – | – | 0.01 to 0.1 µM | –

The remaining lines, values ahead:

Ki (DNA-PK [1]; Table 1, 100 μM ATP) | IC50 (DNA-PK [2]; Table 1) | Ki (DNA-PK [1]; Table 2, 100 μM ATP) | IC50 (DNA-PK [2]; Table 2) | Structure (SMILES)
< 0.001 µM | < 100 nM | – | – | Cc1nc2c(c(N[C@H]3CC[C@@H](Oc4cc(N5CCOCC5)cc5ncncc45)CC3)n1)OCC2 [Compound 1, 2-methyl-N-[4-(7-morpholinoquinazolin-5-yl)oxycyclohexyl]-6,7-dihydrofuro[3,2-d]pyrimidin-4-amine]
< 0.001 µM | < 100 nM | – | – | Cc1nccc(N[C@H]2CC[C@@H](Oc3cc(N4CCOCC4)cc4ncncc34)CC2)n1 [Compound 3, 2-methyl-N-[4-(7-morpholinoquinazolin-5-yl)oxycyclohexyl]pyrimidin-4-amine]
0.001 to 0.01 µM | 100 to 1000 nM | – | – | O=C1c2ccccc2C(=O)N1[C@H]1CC[C@@H](Oc2cc(N3CCOCC3)cc3ncncc23)CC1 [Compound 7, 2-[4-(7-morpholinoquinazolin-5-yl)oxycyclohexyl]isoindoline-1,3-dione]
< 0.001 µM | < 100 nM | – | – | CNC(=O)c1ccnc(N[C@H]2CC[C@@H](Oc3cc(N4CCOCC4)cc4ncnc(OC)c34)CC2)n1 [Compound 9, 2-[[4-(4-methoxy-7-morpholino-quinazolin-5-yl)oxycyclohexyl]amino]-N-methyl-pyrimidine-4-carboxamide]
– | 100 to 1000 nM | – | – | Cc1nccc(N[C@H]2CC[C@@H](Oc3cc(N4CCOCC4)cc4ncn(C)c(=O)c34)CC2)n1 [Compound 21, 3-methyl-5-[4-[(2-methylpyrimidin-4-yl)amino]cyclohexoxy]-7-morpholino-quinazolin-4-one]
– | 100 to 1000 nM | – | – | CNC(=O)c1ccnc(N[C@H]2CC[C@@H](Oc3cc(N4CCOCC4)cc4ncn(C)c(=O)c34)CC2)n1 [Compound 25, N-methyl-2-[[4-(3-methyl-7-morpholino-4-oxo-quinazolin-5-yl)oxycyclohexyl]amino]pyrimidine-4-carboxamide]
– | < 100 nM | – | – | c1cnc(O[C@H]2CC[C@@H](Oc3cc(N4CCOCC4)cc4ncncc34)CC2)nc1 [Compound 27, 4-[5-cis-(4-pyrimidin-2-yloxycyclohexoxy)quinazolin-7-yl]morpholine]
– | < 100 nM | – | – | c1cnc(O[C@H]2CC[C@H](Oc3cc(N4CCOCC4)cc4ncncc34)CC2)nc1 [Compound 28, 4-[5-trans-(4-pyrimidin-2-yloxycyclohexoxy)quinazolin-7-yl]morpholine]
– | – | – | 100 to 1000 nM | COc1ccc(COc2cc(N3CCOCC3)cc3ncnc(C4CC4)c23)cc1 [Compound 56, 4-[4-cyclopropyl-5-[(4-methoxyphenyl)methoxy]quinazolin-7-yl]morpholine]
